Entries after “also recorded” stand apart in the source; their conditions may differ. Read-outs that look alike come from different tables or passages of the source.
Columns and labels:
[1] = test system: Anopheles gambiae s.s. females; assay: Laboratory bioassay of repellent compounds (landings on heated, odour-baited plateau); format: in vivo; settings: for effect on number of landings during eight minutes compared to ethanol control: 1% in ethanol on nylon strip, ten females, n=8, Mann-Whitney U, α=0.0042, listed in order of increasing efficacy; for repellent effect on host-seeking mosquitoes: 1% concentration
Method: The bioassay was set up in a room in which air temperature and relative humidity (RH) could easily be controlled. During experiments these parameters were continuously monitored using a Tinyview® data logger with display. Temperature was maintained at 24±1° C. and RH was kept between 60 and 75%.
Because repellents are volatile compounds, the risk of contamination of the setup is always present when testing these substances. Therefore, this bioassay uses replaceable 30×30×30 cm Bugdorm® cages as flight chambers. Although made of polyethylene (PE) and polypropylene (PP) which may potentially pick up the compounds tested, no contamination effects were observed, in contrast to a previously used cage made of metal and polycarbonate (see below).
Mosquitoes were attracted to a heated circular plateau (1) of diameter 15 cm acting as a landing surface, that was positioned underneath the gauze bottom of the Bugdorm® (2). Ten moist filter papers (3) of diameter 8 cm were applied on top of the heating plateau. Metal gauze was placed over the papers on which the strips releasing the odour blend were laid (see below). A transparent plastic cylinder was placed around the plateau to concentrate the warm, humid air within the area above the plateau.
A five-compound odour bait, which simulates the smell of a human foot (Mukabana et al., 2012), provided the necessary attractive background against which repellency could be measured. The individual compounds were released from nylon strips (cut from panty hoses: 90% polyamide, 10% spandex, Marie Claire®) (see Okumu et al. (2010b)). Concentrations were optimized for this release method: ammonia (25%), L-(+)-lactic-acid (88-92%), tetradecanoic acid (16% in ethanol), 3-methyl-1-butanol (0.01% in paraffin oil) and butan-1-amine (0.001% in paraffin oil). Strips measuring 26.5 cm×1 cm were impregnated with the attractive compounds by dipping them into an Eppendorf tube containing 1 ml of solution. Subsequently, they were stored at room temperature for three to five hours. Hereafter the strips were hung for half an hour under a fume hood to allow excess fluids to leak off. Finally they were packed in aluminium foil and stored at 4° C. in a refrigerator until use. Pulses of CO2 were released into the Bugdorm® through a teflon tube (4) that rested on top of the Bugdorm®. Each eight seconds, a two second pulse was released at 2.17 mL/sec (or 130 mL/min).
A glass screen (5, 6) was placed between the Bugdorm® and the place from where a researcher would carry out the behavioural observations. In this way, skin and breath emanations from the researcher were prevented from interfering directly with the mosquitoes inside the flight chamber. In the ceiling of the experimental room a fan created a gentle suction to carry off any volatiles emitted by both the experimental operator and the setup.
Repellence was measured by releasing a number of female Anopheles gambiae s.s. mosquitoes into the cage. The mosquitoes were highly attracted to the warm area on the bottom of the Bugdorm® cage and they would land and probe with their proboscis through the gauze in search of a blood-host.
A potential repellent was released from a nylon strip that was prepared identically to the method used for attractive compounds, with the exception that the strips were not hung up under a fume hood but stored in Eppendorf tubes at 4° C. directly after their preparation. The impregnated nylon strips with the repellents were taken out of their solution just before the start of the experiment and allowed to leak out on a piece of filter paper for 10 s before they were placed in the experimental setup. Strips were laid directly on the gauze bottom of the Bugdorm®, in a circle within the circular area under which the attractant blend was released.
After one minute of acclimatization time, the number of landings within the circular area formed by the treated strip was counted for a period of eight minutes. […]

[2] = test system: An. gambiae s.s., Mbita strain; assay: Semi-field testing in MalariaSphere (push / push-pull, trap catches inside and outside experimental house); format: in vivo, Anopheles gambiae s.s.; parameters: Reduction (mosquitoes trapped indoors vs control): concentration or dose not given beside the values; settings: for Indoors Mean (SEM) no. mosquitoes / Indoors Percentage trapped / Reduction (mosquitoes trapped indoors vs control) / Outdoors Mean (SEM) no. mosquitoes / Outdoors Percentage trapped: n=6; for spatial repellent effect: inventors' observation, repellent traps spaced about 4-5 meters apart
Text: Mosquitoes (An. gambiae s.s., Mbita strain; henceforth termed An. gambiae) were reared under ambient atmospheric conditions in screenhouses (larvae) and holding rooms (adults) at the Thomas Odhiambo Campus (TOC) of the International Centre of Insect Physiology and Ecology (ICIPE) located near Mbita Point township in western Kenya. Mosquito eggs were placed in plastic trays containing filtered water from Lake Victoria. All larval instars were fed on Tetramin® baby fish food which was supplied thrice per day. Pupae were collected daily and placed in mesh-covered cages (30×30×30 cm) prior to adult emergence. Adult mosquitoes were fed on 6% glucose solution through wicks made from adsorbent tissue paper.
Four to six day old female mosquitoes that had no prior access to blood were used for the semi-field experiments. The mosquitoes were collected from the colony at 12:00 h each day and stored for eight hours in the colony room with access to water on cotton wool. Within 15 min. before the start of the experiment the cups with the mosquitoes were transported to the MalariaSphere.
The experiments were conducted in Kenya at the Mbita Point Research & Training Centre of the International Centre of Insect Physiology and Ecology (ICIPE). Experiments took place in the MalariaSphere, a screenhouse into which a traditional house was built surrounded by natural vegetation (see Knols et al. (2002)). […] The MalariaSphere was set up as described by Knols et al. (2002) with as only modification that no breeding sites were present.
In the experiment the effects of attractant-baited traps and the dispersal of repellents around the traditional house were tested. Eight different setups were tested. During all tests, one attractant-baited trap (see below) was placed inside the experimental house to represent a human being. The house entry of the mosquitoes was measured by the number of mosquitoes caught by the trap inside the house.
Each night at 20:00 h, 200 female mosquitoes were released into the MalariaSphere. At 06:30 h the next morning the experiment was terminated by closing and switching off all traps. The traps were then placed in a freezer for several minutes to inactivate the mosquitoes, after which the number of trapped mosquitoes was determined.
The study compared the effect of three different repellents; in push-only situations, as well as in situations in which both the repellent and the attractive elements were present. […] Open circles represent a MMX trap baited with attractant. Filled circles represent a MMX trap dispersing the repellent. The asterisk indicates the mosquito release point. The numbers of the treatments correspond to the following:
Each setup was tested during six different nights, thus a total of 48 tests was carried out, during the same number of nights. The order of the tests was not fully randomized in order to minimize the risk of contamination of the MalariaSphere with the odours used.
Besides PMD, catnip essential oil (e.o.) and delta-undecalactone (dUDL) were used as repellents. Strips were impregnated with 40% solutions (catnip e.o. and dUDL were dissolved in paraffin oil) as described below.
Each night 200 mosquitoes were released from one central point between the entrance of the screenhouse and the experimental hut (see FIG. 3).
Mosquito Magnet® X (MM-X) traps (Kline (1999), Njiru et al (2006)) were baited with CO2 and a five-compound odour blend, which simulates the smell of a human foot (Mukabana et al., 2012). The individual compounds of the attractive blend were released from nylon strips (cut from panty hoses: 90% polyamide, 10% spandex, Marie Claire®) (Okumu et al. (2010b)). Concentrations were optimized for this setup and release method: ammonia (2.5% in water), L-(+)-lactic-acid (88-92%), tetradecanoic acid (0.000032% in ethanol), 3-methyl-1-butanol (0.000001% in water) and butan-1-amine (0.001% in paraffin oil) (see Table 1). […]

[3] = background statement; cited from earlier work
[4] = test system: An. gambiae s.s., Mbita strain; settings: comparison statement; DEET not tested in this setup; cited from earlier work
[5] = push only, 40% solution on strip, 200 mosquitoes released per night
[6] = push only, 200 released per night

Compound	effect on number of landings during eight minutes compared to ethanol control [1]	Indoors Mean (SEM) no. mosquitoes [2, 5]	Indoors Percentage trapped [2, 6] [%]	Outdoors Mean (SEM) no. mosquitoes ([2]; push-pull)	Outdoors Percentage trapped ([2]; push-pull) [%]	repellent effect on host-seeking mosquitoes [1]	solubility [3]	spatial repellent effect [2]	further results
C=CC(C)(O)CCC=C(C)C (stereo not drawn) [linalool]	significantly reduced the number of landings								
CC(=O)CCC=C(C)C [6-methyl-5-hepten-2-one]	significantly reduced the number of landings								
CC1CCC(C(C)(C)O)C(O)C1 (stereo not drawn) [PMD, p-Menthane-3,8-diol, reference compound]	significantly reduced the number of landings	44.5 (5.6) b	22.3	125.0 (13.8)	62.5				Reduction (mosquitoes trapped indoors vs control) ([2]; push only): 45.7%; Indoors Mean (SEM) no. mosquitoes ([2]; push-pull (repellent plus attractant-baited traps outside), 200 released per night): 6.8 (1.2) c, d; Indoors Percentage trapped ([2]; push-pull, 200 released per night): 3.4%; Reduction (mosquitoes trapped indoors vs control) ([2]; push-pull): 91.7%
CCCCCCC1CCCC(=O)O1 (stereo not drawn) [δ-undecalactone, 6-hexyloxan-2-one]	significantly reduced the number of landings	15.2 (2.5) c(d)	7.6	122.8 (7.1)	61.4	strong repellent effect	solubility in alcohol	significant spatial repellent effect; also recorded: significant repellent effect from a distance of at least several decimeters	Reduction (mosquitoes trapped indoors vs control) ([2]; push only, listed as dUDL): 81.5%; Reduction (mosquitoes trapped indoors vs control) ([2]; push only, listed as delta-undecalactone): 81.5%; Indoors Mean (SEM) no. mosquitoes ([2]; push-pull (repellent plus attractant-baited traps outside), 200 released per night, listed as dUDL): 3.7 (0.7) d; Indoors Mean (SEM) no. mosquitoes ([2]; push-pull (repellent plus attractant-baited traps outside), 200 released per night, listed as delta-undecalactone): 3.7 (0.7); Indoors Percentage trapped ([2]; push-pull, 200 released per night, listed as dUDL): 1.9%; Indoors Percentage trapped ([2]; push-pull, 200 released per night, listed as delta-undecalactone): 1.9%; Reduction (mosquitoes trapped indoors vs control) ([2]; push-pull, listed as dUDL): 95.5%; Reduction (mosquitoes trapped indoors vs control) ([2]; push-pull, listed as delta-undecalactone): 95.5%
CCCCCC1CCCC(=O)O1 (stereo not drawn) [δ-decalactone, 6-pentyloxan-2-one]	significantly reduced the number of landings					strong repellent effect	solubility in alcohols or oils	significant spatial repellent effect; also recorded: significant repellent effect from a distance of at least several decimeters	
CCN(CC)C(=O)c1cccc(C)c1 [DEET, N,N-diethyl-meta-toluamide]	significantly reduced the number of landings								spatial repellent effect [4]: little or no spatial repellent effect; also recorded: no spatial effect on distances from the human skin greater than a few millimeters
